From patent US7141533B2, “Hetaryl-substituted heterocycles” (Bayer CropScience AG, priority 2000, dated 2006)

Legend:
[1] = system: larvae of the mustard beetle (Phaedon cochleariae); experiment: Phaedon larvae test; type: in vivo; settings: cabbage leaves dipped
Method: (§1) [table] To produce a suitable preparation of active compound, 1 part by weight of active compound is mixed with the stated amounts of solvent and emulsifier, and the concentrate is diluted with emulsifier-containing water to the desired concentration. Cabbage leaves (Brassica oleracea) are treated by being dipped into the preparation of active compound of the desired concentration and are populated with the larvae of the mustard beetle (Phaedon cochleariae) while the leaves are still moist. After the desired period of time, the kill in % is determined. 100% means that all beetle larvae have been killed; 0% means that none of the beetle larvae have been killed.

[2] = system: caterpillars of the army worm (Spodoptera frugiperda); experiment: Spodoptera frugiperda test; type: in vivo; settings: cabbage leaves dipped
Method: as §1, with “caterpillars” for “the larvae”, “army worm (Spodoptera frugiperda)” for “mustard beetle (Phaedon cochleariae)”, “caterpillars” for “beetle larvae”

Alopecurus [3] = experiment: Post-emergence test; type: in vivo; settings: after three weeks
Method: (§2) [table] To produce a suitable preparation of active compound, 1 part by weight of active compound is mixed with the stated amount of solvent, the stated amount of emulsifier is added and the concentrate is diluted with water to the desired concentration. Test plants of a height of 5 to 15 cm are sprayed with the preparation of active compound such that the particular amounts of active compound desired are applied per unit area. The concentration of the spray liquor is chosen such that the particular amounts of active compound desired are applied in 1000 1 of water/ha. After three weeks, the degree of damage to the plants is rated in % damage in comparison to the development of the untreated control. [table]

Avena fatua [4] = experiment: Post-emergence test; type: in vivo; settings: after three weeks
Method: as §2

Echinochloa = experiment: Post-emergence test; type: in vivo; settings: after three weeks
Method: as §2

Setaria [5] = experiment: Post-emergence test; type: in vivo; settings: 250 g ai/ha, after three weeks
Method: as §2

Amaranthus = experiment: Post-emergence test; type: in vivo; settings: 250 g ai/ha, after three weeks
Method: as §2

[6] = system: peach aphid (Myzus persicae); experiment: Myzus test; type: in vivo; settings: cabbage leaves dipped
Method: as §1, with “oleracea) which are heavily infested by the peach aphid (Myzus persicae)” for “oleracea)”, “concentration.” for “concentration and are populated with the larvae of the mustard beetle (Phaedon cochleariae) while the leaves are still moist.”, “aphids” for “beetle larvae”

[7] = system: greenhouse red spider mite (Tetranychus urticae); experiment: Tetranychus test (OP-resistant/dip treatment); type: in vivo; settings: bean plants dipped, OP-resistant
Method: [table] To produce a suitable preparation of active compound, 1 part by weight of active compound is mixed with the stated amounts of solvent and emulsifier, and the concentrate is diluted with emulsifier-containing water to the desired concentration. Bean plants (Phaseolus vulgaris) which are heavily infested by all stages of the greenhouse red spider mite (Tetranychus urticae) are dipped into a preparation of active compound of the desired concentration. After the desired period of time, the effect in % is determined. 100% means that all spider mites have been killed. 0% means that none of the spider mites have been killed.

Abutilon = experiment: Post-emergence test; type: in vivo; settings: 250 g ai/ha, after three weeks
Method: as §2

[8] = logP (HPLC; acetonitrile); type: physicochemical; settings: for logP (pH2): pH 2
Description: Yield: 2.4 g ( ? 41.62% of theory), logP (acidic) 4.54 (HPLC; acetonitrile).

Meloidogyne incognita = experiment: Meloidogyne test; type: in vivo; settings: Meloidogyne incognita egg/larvae on lettuce in sand
Method: [table] To produce a suitable preparation of active compound, 1 part by weight of active compound is mixed with the stated amounts of solvent and emulsifier, and the concentrate is diluted with water to the desired concentration. Containers are filled with sand, solution of active compound, Meloidogyne incognita egg/larvae suspension and lettuce seeds. The lettuce seeds germinate and the plants develop. On the roots, galls are formed. After the desired period of time, the nematicidal action in % is determined using the formation of galls as a measure. 100% means that no galls have been found; 0% means that the number of galls on the treated plants corresponds to that on the untreated control.

Avena fatua [9] = experiment: Pre-emergence test; type: in vivo; settings: after three weeks
Method: (§3) [table] To produce a suitable preparation of active compound, 1 part by weight of active compound is mixed with the stated amount of solvent, the stated amount of emulsifier is added and the concentrate is diluted with water to the desired concentration. Seeds of the test plants are sown in normal soil. After about 24 hours, the soil is sprayed with the preparation of active compound such that the particular amounts of active compound desired are applied per unit area. The concentration of the spray liquor is chosen such that the particular amounts of active compound desired are applied in 1000 1 of water/ha. After three weeks, the degree of damage to the plants is rated in % damage in comparison to the development of the untreated control. [table]

Bromus = experiment: Pre-emergence test; type: in vivo; settings: 250 g ai/ha, after three weeks
Method: as §3

Lolium = experiment: Pre-emergence test; type: in vivo; settings: after three weeks
Method: as §3

Setaria [10] = experiment: Pre-emergence test; type: in vivo; settings: after three weeks
Method: as §3

oilseed rape [11] = experiment: Pre-emergence test; type: in vivo; settings: after three weeks
Method: as §3

sugar beet [12] = experiment: Pre-emergence test; type: in vivo; settings: after three weeks
Method: as §3

Digitaria = experiment: Post-emergence test; type: in vivo; settings: after three weeks
Method: as §2

Soya bean = experiment: Post-emergence test; type: in vivo; settings: 250 g ai/ha, after three weeks
Method: as §2

sugar beet [13] = experiment: Post-emergence test; type: in vivo; settings: after three weeks
Method: as §2

Sinapis = experiment: Post-emergence test; type: in vivo; settings: 250 g ai/ha, after three weeks
Method: as §2

Alopecurus [14] = experiment: Pre-emergence test; type: in vivo; settings: 125 g ai/ha, after three weeks
Method: as §3

Matricaria = experiment: Pre-emergence test; type: in vivo; settings: 125 g ai/ha, after three weeks
Method: as §3

Chenopodium = experiment: Post-emergence test; type: in vivo; settings: 250 g ai/ha, after three weeks
Method: as §2

oilseed rape [15] = experiment: Post-emergence test; type: in vivo; settings: 250 g ai/ha, after three weeks
Method: as §2

Stellaria = experiment: Post-emergence test; type: in vivo; settings: 250 g ai/ha, after three weeks
Method: as §2

rice = experiment: Post-emergence test; type: in vivo; settings: 250 g ai/ha, after three weeks
Method: as §2

SMILES | kill of beetle larvae [1] | kill of caterpillars [2] | % damage Alopecurus (Alopecurus [3]; 250 g ai/ha) | % damage Avena fatua (Avena fatua [4]; 250 g ai/ha) | % damage Echinochloa (Echinochloa; 250 g ai/ha) | % damage Setaria (Setaria [5]) | % damage Amaranthus (Amaranthus) | also measured
CCOC(=O)OC1=C(c2nc(-c3ccc(Cl)cc3)sc2C)C(=O)NC12CCC(OC)CC2 (stereo not shown) [Example I-1-A-c-1] | good activity | good activity | 80% | 95% | 95% | 90% | – | –
Cc1sc(-c2ccc(Cl)cc2)nc1C1=C(O)C(C)(C)NC1=O [Example I-1-A-a-2] | good activity | good activity | 70% | – | 90% | 95% | 90% | –
COC1CCC2(CC1)NC(=O)C(c1nc(-c3ccc(C)cc3)sc1C)=C2O (single isomer, unassigned) [Example I-1-A-a-8] | good activity | – | – | – | – | – | – | kill of aphids [6]: good activity
CCOC1CCC2(CC1)NC(=O)C(c1nc(-c3ccc(Cl)cc3)sc1C)=C2O (single isomer, unassigned) [Example I-1-A-a-4] | good activity | good activity | 95% | 100% | 100% | 100% | 95% | effect on spider mites [7]: good activity; % damage Abutilon (Abutilon): 80%
CCOC(=O)C1(OC(=O)Cc2nc(-c3ccc(Cl)cc3)sc2C)CCC(OC)CC1 (stereo not shown) [III-A-1] | – | – | – | – | – | – | – | chromatographic logP ([8]; acidic, HPLC, acetonitrile): 4.54
Cc1sc(-c2ccc(Cl)cc2)nc1C1=C(O)C(C)(C)OC1=O [Example I-2-A-a-2] | good activity | – | – | 90% | 100% | 95% | – | nematicidal action (formation of galls) (Meloidogyne incognita): good activity; effect on spider mites [7]: good activity; % damage Avena fatua (Avena fatua [9]; 250 g ai/ha): 90%; % damage Bromus (Bromus): 90%; % damage Lolium (Lolium; 250 g ai/ha): 100%; % damage Setaria (Setaria [10]; 250 g ai/ha): 100%; % damage oilseed rape (oilseed rape [11]; 250 g ai/ha): 0%; % damage sugar beet (sugar beet [12]; 250 g ai/ha): 0%; % damage Digitaria (Digitaria; 250 g ai/ha): 90%; % damage Soya bean (Soya bean): 0%; % damage sugar beet (sugar beet [13]; 250 g ai/ha): 0%
Cc1sc(-c2ccc(Cl)cc2)nc1C1=C(O)C2(CCOCC2)NC1=O [Example I-1-A-a-5] | good activity | good activity | 80% | – | 100% | – | 90% | kill of aphids [6]: good activity; effect on spider mites [7]: good activity
Cc1oc(-c2ccccc2)nc1C1=C(O)C(C)(C)OC1=O [Example I-2-B-a-2] | – | – | – | – | – | – | – | logP (pH2) [8]: 3.43
CCOC(=O)C(C)(C)OC(=O)Cc1nc(-c2ccc(Cl)cc2)sc1C [III-A-2] | – | – | – | – | – | – | – | logP (pH2) [8]: 4.53
Cc1sc(-c2ccc(Cl)cc2)nc1C1=C(O)C2(CCC(C)CC2)NC1=O (stereo not shown) [Example I-1-A-a-1] | good activity | good activity | 80% | 80% | 95% | – | 70% | % damage Sinapis (Sinapis): 80%
COC1CCC2(CC1)NC(=O)C(c1nc(-c3ccc(Cl)cc3)sc1C)=C2OC(=O)C(C)C (stereo not shown) [Example I-1-A-b-1] | – | – | 95% | 100% | 100% | 100% | 80% | % damage Abutilon (Abutilon): 80%
COC1CCC2(CC1)OC(=O)C(c1nc(-c3ccc(Cl)cc3)sc1C)=C2O (stereo not shown) [Example I-2-A-a-1] | good activity | good activity | 80% | 95% | 100% | 100% | 70% | nematicidal action (formation of galls) (Meloidogyne incognita): good activity; kill of aphids [6]: good activity; % damage Alopecurus (Alopecurus [14]): 90%; % damage Avena fatua (Avena fatua [9]; 125 g ai/ha): 100%; % damage Lolium (Lolium; 125 g ai/ha): 100%; % damage Matricaria (Matricaria): 100%; % damage Setaria (Setaria [10]; 125 g ai/ha): 100%; % damage oilseed rape (oilseed rape [11]; 125 g ai/ha): 0%; % damage sugar beet (sugar beet [12]; 125 g ai/ha): 0%; % damage Chenopodium (Chenopodium): 70%; % damage oilseed rape (oilseed rape [15]): 20%
COC1CCC2(CC1)NC(=O)C(c1nc(-c3ccc(Cl)cc3)sc1C)=C2O (single isomer, unassigned) [Example I-1-A-a-3] | good activity | – | – | 100% | 100% | – | – | % damage Digitaria (Digitaria; 250 g ai/ha): 100%; % damage Stellaria (Stellaria): 90%; % damage rice (rice): 10%
Cc1sc(-c2ccc(Cl)cc2)nc1C1=C(O)C2(CCCOC2)NC1=O (stereo not shown) [Example I-1-A-a-6] | good activity | good activity | – | – | – | – | – | kill of aphids [6]: good activity; effect on spider mites [7]: good activity; % damage Alopecurus (Alopecurus [3]; 125 g ai/ha): 90%; % damage Avena fatua (Avena fatua [4]; 125 g ai/ha): 90%; % damage Digitaria (Digitaria; 125 g ai/ha): 95%; % damage Echinochloa (Echinochloa; 125 g ai/ha): 90%; % damage sugar beet (sugar beet [13]; 125 g ai/ha): 0%
